The record followed here is ChEMBL document CHEMBL1938382, “Fragment-based discovery of indole inhibitors of matrix metalloproteinase-13” (J Med Chem, 2011).

SMILES strings stand for the structures. Values after ≈ are worked out from the molar mass of the structure shown.

Series [1] can be described thus: Metabolic stability in human liver microsomes after 5 mins relative to human hepatic blood flow. It is filed as ADME, Microsome. The following applies: read-out: Stability.
Series [2] addresses T1, Collagenase 3 (Homo sapiens, UniProt P45452).
Description: Inhibition of human MMP13 expressed in Escherichia coli after 30 mins by fluorimetry
For series [3], the target named is 72 kDa type IV collagenase (Homo sapiens, UniProt P08253). Kind of series: Inhibition of human recombinant MMP2 after 30 mins by fluorimetry.
Sequence of 72 kDa type IV collagenase (P08253 whole entry): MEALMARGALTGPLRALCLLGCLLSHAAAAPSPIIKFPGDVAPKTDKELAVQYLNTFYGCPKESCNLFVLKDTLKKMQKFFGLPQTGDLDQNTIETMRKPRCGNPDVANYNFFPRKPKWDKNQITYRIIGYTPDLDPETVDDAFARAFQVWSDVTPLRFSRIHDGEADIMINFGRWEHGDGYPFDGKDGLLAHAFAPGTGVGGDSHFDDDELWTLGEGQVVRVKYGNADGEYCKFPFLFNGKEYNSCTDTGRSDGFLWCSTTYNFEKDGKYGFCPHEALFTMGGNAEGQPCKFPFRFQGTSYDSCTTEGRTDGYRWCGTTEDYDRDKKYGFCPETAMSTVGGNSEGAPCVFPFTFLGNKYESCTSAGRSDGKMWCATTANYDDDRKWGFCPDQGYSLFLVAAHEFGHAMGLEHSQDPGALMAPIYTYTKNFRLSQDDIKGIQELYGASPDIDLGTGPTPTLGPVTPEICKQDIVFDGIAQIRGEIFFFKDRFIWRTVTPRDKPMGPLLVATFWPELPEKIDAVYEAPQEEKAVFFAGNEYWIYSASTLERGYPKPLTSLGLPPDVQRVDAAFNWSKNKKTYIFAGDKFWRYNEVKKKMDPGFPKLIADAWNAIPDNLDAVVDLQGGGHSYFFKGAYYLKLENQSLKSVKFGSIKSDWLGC
Series [4] has as its target Matrix metalloproteinase-14 (Homo sapiens, UniProt P50281). The series is described as follows: Inhibition of human recombinant MMP14 after 60 mins by fluorimetry.
Series [5] has as its target T1, Collagenase 3. The series is described as follows: Inhibition of MMP13 after 30 mins by fluorimetry in the presence of 1.25% human serum albumin.
Series [6] deals with Cytochrome P450 3A4 (Homo sapiens, UniProt P08684). The series is described as follows: Inhibition of human recombinant CYP3A4 using 7-benzyloxy-4-trifluoromethylcoumarin as substrate after 30 mins by fluorimetry. It is filed as ADME.
Sequence of Cytochrome P450 3A4 (P08684 whole entry): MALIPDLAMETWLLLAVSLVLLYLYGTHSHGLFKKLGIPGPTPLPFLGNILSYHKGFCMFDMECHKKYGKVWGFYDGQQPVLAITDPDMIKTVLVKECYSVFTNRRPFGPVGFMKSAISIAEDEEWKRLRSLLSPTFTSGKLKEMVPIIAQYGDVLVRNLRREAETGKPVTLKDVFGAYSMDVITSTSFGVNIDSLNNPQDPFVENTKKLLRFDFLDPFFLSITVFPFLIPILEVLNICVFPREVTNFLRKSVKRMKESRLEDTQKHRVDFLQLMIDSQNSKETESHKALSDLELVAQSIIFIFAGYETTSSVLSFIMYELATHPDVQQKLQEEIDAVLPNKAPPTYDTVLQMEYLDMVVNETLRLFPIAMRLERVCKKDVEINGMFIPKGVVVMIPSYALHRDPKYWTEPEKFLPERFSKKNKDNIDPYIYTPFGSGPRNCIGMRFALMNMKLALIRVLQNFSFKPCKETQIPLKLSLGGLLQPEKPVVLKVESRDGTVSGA
Series [7] addresses T1, Collagenase 3. The series is described as follows: Inhibition of […]-activated MMP13-mediated degradation of FITC-labeled type2 collagen after 1.5 hrs by fluorimetry.
The target in series [8] is T1, Collagenase 3. The series is described as follows: Inhibition of human MMP13-mediated degradation of bovine nasal cartilage after 2 hrs by ELISA in the presence of 10% human serum. In general terms: An ELISA detects its analyte on a solid surface through an enzyme-linked reagent.
Series [9] in a line: Aqueous solubility of the compound at pH 7.4 by UV spectrophotometry. It counts as physicochemical. The following applies: buffer.
Series [10] in a line: Lipophilicity, log P of the compound. It counts as physicochemical. Particulars: octanol/water.
For series [11], the system named is Rattus norvegicus. Kind of series: AUC in Sprague-Dawley rat at 1 mg/kg, iv. The following applies: in vivo. It is filed as ADME, organism-based, Plasma. Also noted: dose 1 mg/kg, route intravenous.
Series [12] concerns Rattus norvegicus. The series is described as follows: Volume of distribution at steady state in Sprague-Dawley rat at 1 mg/kg, iv and 10 mg/kg, po. It counts as ADME, organism-based. Particulars: in vivo.
Series [13] is described as follows: Clearance in Sprague-Dawley rat at 1 mg/kg, iv and 10 mg/kg, po. It counts as ADME, organism-based. The following applies: in vivo.
The nature of series [14]: Half life in Sprague-Dawley rat at 1 mg/kg, iv and 10 mg/kg, po. It counts as ADME, organism-based. Particulars: in vivo.
Series [15] can be described thus: Cmax in Sprague-Dawley rat at 1 mg/kg, iv and 10 mg/kg, po. It is filed as ADME, organism-based. The following applies: in vivo.
Series [16] has as its system Rattus norvegicus. Kind of series: AUC in Sprague-Dawley rat at 10 mg/kg, po. Also noted: dose 10 mg/kg, route oral. Particulars: in vivo. It counts as ADME, organism-based, Plasma.
Series [17] in a line: Oral bioavailability in Sprague-Dawley rat at 10 mg/kg. It counts as ADME, organism-based. Particulars: in vivo.
In series [18] the target is T2, Interstitial collagenase (Homo sapiens, UniProt P03956).
T2 sequence (P03956 whole entry): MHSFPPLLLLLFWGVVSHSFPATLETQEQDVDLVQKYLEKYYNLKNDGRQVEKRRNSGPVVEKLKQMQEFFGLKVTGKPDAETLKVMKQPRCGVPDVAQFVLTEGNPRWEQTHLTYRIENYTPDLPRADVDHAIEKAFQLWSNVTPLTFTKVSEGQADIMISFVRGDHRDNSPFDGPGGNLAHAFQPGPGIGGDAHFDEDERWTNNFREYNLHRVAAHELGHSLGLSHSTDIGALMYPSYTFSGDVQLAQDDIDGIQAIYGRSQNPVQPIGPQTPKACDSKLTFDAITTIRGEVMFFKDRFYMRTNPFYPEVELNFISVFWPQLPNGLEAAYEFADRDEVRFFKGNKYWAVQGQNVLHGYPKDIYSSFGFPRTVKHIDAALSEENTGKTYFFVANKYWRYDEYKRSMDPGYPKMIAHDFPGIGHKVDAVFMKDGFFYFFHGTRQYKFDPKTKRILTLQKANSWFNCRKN
Kind of series: Inhibition of human recombinant MMP1 after 30 mins by fluorimetry.

In series [19] the target is Stromelysin-1 (Homo sapiens, UniProt P08254). Kind of series: Inhibition of human recombinant MMP3 after 30 mins by fluorimetry.
Sequence of Stromelysin-1 (P08254 whole entry): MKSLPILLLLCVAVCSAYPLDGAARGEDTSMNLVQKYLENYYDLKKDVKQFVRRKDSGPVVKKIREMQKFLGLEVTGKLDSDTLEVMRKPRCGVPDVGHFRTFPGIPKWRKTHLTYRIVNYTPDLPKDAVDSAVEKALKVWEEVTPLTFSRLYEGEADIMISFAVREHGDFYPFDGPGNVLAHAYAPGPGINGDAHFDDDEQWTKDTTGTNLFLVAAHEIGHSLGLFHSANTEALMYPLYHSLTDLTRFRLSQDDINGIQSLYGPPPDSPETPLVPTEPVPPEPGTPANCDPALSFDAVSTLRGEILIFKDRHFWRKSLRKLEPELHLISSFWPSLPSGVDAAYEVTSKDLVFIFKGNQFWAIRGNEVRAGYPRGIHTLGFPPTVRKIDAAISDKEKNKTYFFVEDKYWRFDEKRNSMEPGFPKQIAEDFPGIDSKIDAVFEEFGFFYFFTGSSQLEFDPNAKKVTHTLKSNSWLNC
The target in series [20] is T3, Matrilysin (Homo sapiens, UniProt P09237).
T3 sequence (P09237 whole entry): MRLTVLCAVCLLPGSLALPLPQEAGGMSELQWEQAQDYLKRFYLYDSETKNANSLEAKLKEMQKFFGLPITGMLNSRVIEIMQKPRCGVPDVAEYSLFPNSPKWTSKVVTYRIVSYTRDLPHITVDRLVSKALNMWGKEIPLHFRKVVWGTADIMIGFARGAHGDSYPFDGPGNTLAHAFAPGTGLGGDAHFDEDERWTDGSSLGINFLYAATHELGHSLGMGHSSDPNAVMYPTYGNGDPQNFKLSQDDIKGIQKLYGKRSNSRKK
Kind of series: Inhibition of human recombinant MMP7 after 30 mins by fluorimetry.

Series [21] addresses Neutrophil collagenase (Homo sapiens, UniProt P22894). Kind of series: Inhibition of human recombinant MMP8 after 30 mins by fluorimetry.
Series [22] concerns the target Matrix metalloproteinase-9 (Homo sapiens, UniProt P14780). Kind of series: Inhibition of human recombinant MMP9 after 30 mins by fluorimetry.
For series [23], the target named is Stromelysin-2 (Homo sapiens, UniProt P09238). Kind of series: Inhibition of human recombinant MMP10 after 30 mins by fluorimetry.
Sequence of Stromelysin-2 (P09238 whole entry): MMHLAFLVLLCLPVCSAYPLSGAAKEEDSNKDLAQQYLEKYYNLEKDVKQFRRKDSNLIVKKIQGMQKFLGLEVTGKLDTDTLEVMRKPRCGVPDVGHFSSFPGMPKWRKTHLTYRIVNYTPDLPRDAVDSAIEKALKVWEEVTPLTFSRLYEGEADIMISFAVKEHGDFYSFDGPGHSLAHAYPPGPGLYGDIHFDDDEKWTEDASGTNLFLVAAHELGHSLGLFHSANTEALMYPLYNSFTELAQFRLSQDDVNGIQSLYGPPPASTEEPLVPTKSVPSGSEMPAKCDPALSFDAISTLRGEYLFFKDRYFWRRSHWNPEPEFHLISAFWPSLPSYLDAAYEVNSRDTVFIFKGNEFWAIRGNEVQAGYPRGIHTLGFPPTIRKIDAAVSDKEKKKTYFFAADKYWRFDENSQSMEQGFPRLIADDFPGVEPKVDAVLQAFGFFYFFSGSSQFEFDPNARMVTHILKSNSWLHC
The target in series [24] is Macrophage metalloelastase (Homo sapiens, UniProt P39900). Kind of series: Inhibition of human recombinant MMP12 after 30 mins by fluorimetry.
Sequence of Macrophage metalloelastase (P39900 whole entry): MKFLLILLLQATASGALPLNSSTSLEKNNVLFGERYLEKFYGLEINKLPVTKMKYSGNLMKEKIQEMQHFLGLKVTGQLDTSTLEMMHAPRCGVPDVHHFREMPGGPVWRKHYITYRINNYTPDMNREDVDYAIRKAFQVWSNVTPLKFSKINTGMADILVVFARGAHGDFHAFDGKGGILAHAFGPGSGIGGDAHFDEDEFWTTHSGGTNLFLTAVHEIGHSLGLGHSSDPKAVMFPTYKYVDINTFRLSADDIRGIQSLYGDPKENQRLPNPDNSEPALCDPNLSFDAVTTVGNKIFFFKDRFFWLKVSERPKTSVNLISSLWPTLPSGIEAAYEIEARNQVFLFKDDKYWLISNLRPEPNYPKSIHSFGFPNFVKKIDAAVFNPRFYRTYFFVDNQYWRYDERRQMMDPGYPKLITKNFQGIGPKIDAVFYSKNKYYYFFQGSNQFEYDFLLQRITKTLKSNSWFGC
The target of series [25] is Cytochrome P450 2C9 (Homo sapiens, UniProt P11712). The series is described as follows: Inhibition of human recombinant CYP2C9 using 7-methoxy-4-trifluoromethylcoumarin as substrate after 45 mins by fluorimetry. It counts as ADME.
Sequence of Cytochrome P450 2C9 (P11712 whole entry): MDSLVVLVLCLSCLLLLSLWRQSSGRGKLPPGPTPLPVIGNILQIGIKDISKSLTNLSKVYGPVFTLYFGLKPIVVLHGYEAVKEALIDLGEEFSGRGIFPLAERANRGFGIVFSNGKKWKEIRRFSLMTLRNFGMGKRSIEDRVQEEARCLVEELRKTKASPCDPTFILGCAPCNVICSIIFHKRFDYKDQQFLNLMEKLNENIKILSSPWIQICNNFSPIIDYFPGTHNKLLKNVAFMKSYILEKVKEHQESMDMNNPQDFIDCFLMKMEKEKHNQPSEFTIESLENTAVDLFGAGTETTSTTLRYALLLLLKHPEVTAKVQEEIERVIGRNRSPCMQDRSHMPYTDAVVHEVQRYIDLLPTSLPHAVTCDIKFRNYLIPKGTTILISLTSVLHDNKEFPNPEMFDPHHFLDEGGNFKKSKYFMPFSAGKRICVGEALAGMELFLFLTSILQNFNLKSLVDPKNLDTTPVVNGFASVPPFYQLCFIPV
The subject of series [26] is Liver microsomes. The series is described as follows: Drug metabolism in Sprague-Dawley rat liver microsomes assessed as ester hydrolysis product formation. It counts as ADME, Microsome. On the technique in general: Liver microsomes are a subcellular fraction often used to study metabolism.

Sequence of Neutrophil collagenase (P22894 whole entry): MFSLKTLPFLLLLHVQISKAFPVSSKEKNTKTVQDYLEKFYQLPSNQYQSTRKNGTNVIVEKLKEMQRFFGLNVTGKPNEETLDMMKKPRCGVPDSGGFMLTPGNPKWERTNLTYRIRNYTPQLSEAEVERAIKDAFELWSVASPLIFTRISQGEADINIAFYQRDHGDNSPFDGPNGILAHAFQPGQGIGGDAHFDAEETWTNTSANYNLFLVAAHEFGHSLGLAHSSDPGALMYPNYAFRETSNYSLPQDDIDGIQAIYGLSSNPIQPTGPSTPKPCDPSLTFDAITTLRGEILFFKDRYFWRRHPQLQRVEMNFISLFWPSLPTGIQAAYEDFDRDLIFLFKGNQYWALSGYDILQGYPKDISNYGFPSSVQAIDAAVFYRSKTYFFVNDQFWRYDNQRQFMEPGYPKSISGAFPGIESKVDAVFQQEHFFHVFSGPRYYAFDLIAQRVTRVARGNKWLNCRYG
Sequence of Matrix metalloproteinase-9 (P14780 whole entry): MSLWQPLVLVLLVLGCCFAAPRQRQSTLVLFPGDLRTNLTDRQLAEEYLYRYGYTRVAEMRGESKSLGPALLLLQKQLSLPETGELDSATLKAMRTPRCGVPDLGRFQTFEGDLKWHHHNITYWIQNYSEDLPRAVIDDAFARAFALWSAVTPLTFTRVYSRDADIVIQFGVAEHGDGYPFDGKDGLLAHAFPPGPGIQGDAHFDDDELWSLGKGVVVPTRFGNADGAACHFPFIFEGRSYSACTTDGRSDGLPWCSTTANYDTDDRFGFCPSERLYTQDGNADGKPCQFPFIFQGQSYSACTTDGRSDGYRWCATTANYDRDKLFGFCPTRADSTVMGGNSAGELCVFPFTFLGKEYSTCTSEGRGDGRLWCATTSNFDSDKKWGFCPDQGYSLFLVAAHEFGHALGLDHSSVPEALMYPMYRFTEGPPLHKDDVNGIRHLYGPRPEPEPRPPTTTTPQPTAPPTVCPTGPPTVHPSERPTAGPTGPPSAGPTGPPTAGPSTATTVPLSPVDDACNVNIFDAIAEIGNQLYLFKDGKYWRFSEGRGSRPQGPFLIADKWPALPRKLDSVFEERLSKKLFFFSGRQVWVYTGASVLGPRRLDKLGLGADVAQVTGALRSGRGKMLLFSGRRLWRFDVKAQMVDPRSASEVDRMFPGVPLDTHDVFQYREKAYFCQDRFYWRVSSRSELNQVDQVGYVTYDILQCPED

The IC50 is the concentration at which inhibition is half-maximal. For the molecule `Cn1nc(C(=O)NCc2ccc(C(=O)O)cc2)cc1-c1ccc2[nH]ccc2c1` [BI 4395], the hepatic extraction ratio at 5 min in series [1] was 0.25. The molecule also yielded an IC50 in [2] greater than 26 µM.

For the molecule `CCOC(=O)c1cc2cc(-c3cc(C(=O)NCc4ccncc4)ncc3C)ccc2[nH]1`, the IC50 in [3] is greater than 20 µM; in series [4], greater than 22 µM; in series [5], 640 nM; in [2] it was 0.15 µM.

`CCOC(=O)c1cc2cc(-c3cc(C(=O)NCc4ccc(CC(=O)O)cc4)nn3C)ccc2[nH]1`: the IC50 was greater than 22 µM in series [3], greater than 22 µM in [4] and 14 nM in series [5].

Take `CCOC(=O)c1cc2cc(-c3cc(C(=O)NCc4ccc(=O)[nH]c4)nn3C)ccc2[nH]1`: the IC50 was greater than 24 µM in [3], 11 µM in series [4], 280 nM in [5] and 0.12 µM in series [2].

For the molecule `CCOC(=O)c1cc2cc(C(N)=O)ccc2[nH]1`, the concentration for half-maximal inhibition (IC50) is 60 µM in [3] and greater than 500 µM in series [4].

As usually defined, the solubility is the dissolved amount per volume that the medium holds. Low values mean a poorly soluble substance, high ones a readily soluble substance. The logP is a log measure of how a compound divides between an organic and an aqueous phase. Lower therefore signals lower lipophilicity. Usually half-life stands for the time needed for the level to fall by half in the phase considered. Lower therefore signals rapid decline. As a reminder, the Cmax is the maximum level reached in the sampled fluid or tissue. Broadly, the bioavailability is the share of a dose that reaches the circulation, judged against a reference dose that is usually intravenous. A higher bioavailability goes with good availability. As to `CCOC(=O)c1cc2cc(-c3cc(C(=O)NCc4ccc(C(=O)O)cc4)nn3C)ccc2[nH]1` [BI 4394], the IC50 in [6] was greater than 30 µM; in series [7], 11 nM; in series [8] it was 31 nM; in series [5], 4 nM; in series [18] it was greater than 22 µM; in series [19] it was greater than 22 µM. Further, the IC50 in [20] is greater than 22 µM; in series [21], greater than 22 µM; in series [22], 8.9 µM; in series [23], 16 µM; in [24], greater than 22 µM; in series [25], greater than 30 µM. For the same molecule, the IC50 in series [2] is 0.001 µM. The molecule also yielded a solubility in series [9] of 60 µg/mL (≈ 134 µM). In [10], this molecule showed a logP of 1.9. Besides, the AUC in [11] was determined as 1109 nM.hr/ml; in [16], 4328 nM.hr/ml. In [12], this molecule gave a Vdss of 0.26 L/kg. The molecule further returned a clearance in series [13] of 34 mL/min/kg. In [14], this molecule gave a half-life of 28.2 min. Moreover, the Cmax in [15] came to 1660 nM. For the same molecule, the bioavailability in series [17] was determined as 39%.

Regarding `CCOC(=O)c1cc2cc(-c3ccccc3)ccc2[nH]1`, the IC50 in [3], in [4] and in [2] was greater than 500 µM throughout.

With `CCOC(=O)c1cc2cc(-c3cccnc3)ccc2[nH]1`, the figures for the IC50 in series [3], in [4] and in [2] were 30 µM, 51 µM and 15 µM, respectively.

In the case of `CCOC(=O)c1cc2cc(-c3ccncc3)ccc2[nH]1`, the results for the IC50 in series [3], in series [4] and in series [2] were 310 µM, 225 µM and 82 µM, respectively.

On to `CCNC(=O)c1cc2cc(C(N)=O)ccc2[nH]1`, for which the IC50 in series [3], in series [4] and in series [2] was greater than 500 µM each time.

Turning to `CCOCc1cc2cc(-c3cc(C(=O)NCc4ccc(C(=O)O)cc4)nn3C)ccc2[nH]1`, in [1], the hepatic extraction ratio at 5 min is 0.78. For the same molecule, the IC50 in series [5] turned out to be 1900 nM; in series [2], 0.25 µM.

Regarding `CCOC(=O)c1cc2cc(-c3cc(C(=O)NCc4ccncc4)nn3C)ccc2[nH]1`, the IC50 in series [3] was greater than 500 µM; in series [4] it was greater than 500 µM; in [5] it was 360 nM; in series [2] it was 0.09 µM.

On to `CC(=O)Nc1ccc2[nH]c(C3=NCCO3)cc2c1`, for which the IC50 in series [3] was greater than 500 µM; in [4], greater than 500 µM; in series [2], 220 µM.

On to `CCOC(=O)c1cc2cc(-c3cc(C(=O)OC)nn3C)ccc2[nH]1`, for which the IC50 in [3] amounted to 83 µM; in series [4], 41 µM; in series [2], 2.4 µM.

`CCOC(=O)c1cc2cc(-c3cncn3C)ccc2[nH]1`: the results for the IC50 in series [3], in [4] and in series [2] were 24 µM, 15 µM and 2.5 µM, respectively.

Turning to `CCCC(=O)c1cc2cc(C(N)=O)ccc2[nH]1`, the IC50 in series [3], in series [4] and in series [2] was greater than 500 µM each time.

With `CCOC(=O)c1cc2cc(NS(C)(=O)=O)ccc2[nH]1`, the figures for the IC50 in series [3], in [4] and in series [2] were 210 µM, greater than 500 µM and 97 µM, respectively.

For the molecule `CCOC(=O)c1cc2cc(NC(C)=O)ccc2[nH]1`, the IC50 is greater than 500 µM in series [3], greater than 500 µM in series [4] and 31 µM in series [2].

For the molecule `Cn1nc(C(=O)NCc2ccc(C(=O)O)cc2)cc1-c1ccc2[nH]c(C(=O)O)cc2c1`, the Drug metabolism entry in [26] is “Active”. The IC50 was 56000 nM in series [5] and 25 µM in series [2].

On to `CCOC(=O)c1cc2cc(-c3ccccn3)ccc2[nH]1`, for which the IC50 in [3], in [4] and in [2] was greater than 500 µM in each case.

Take `CCOC(=O)c1cc2cc(-c3ccncc3C)ccc2[nH]1`: the IC50 in series [3] was greater than 500 µM; in [4], greater than 500 µM; in [2], 9.6 µM.
